Laboratory results published in US9480261B1, “Insecticidal strain of Serratia for control of brown marmorated stink bug (BMSB), Halyomorpha halys” (priority 2014, dated 2016).

Columns and labels:
Assay in all cases: Antibiotic susceptibility, disk method on L-agar; on Antibiotic resistance of strain ATCC 13880: key: R—Resistant; I—Intermediate; S—Susceptible; on Antibiotic resistance of strain BF1: key: R—Resistant; I—Intermediate; S—Susceptible; on Antibiotic resistance of strain NRRL B-50575: key: R—Resistant; I—Intermediate; S—Susceptible; on Antibiotic resistance of strain TBSB-08: key: R—Resistant; I—Intermediate; S—Susceptible; on Antibiotic resistance of strain TBSB-09: key: R—Resistant; I—Intermediate; S—Susceptible
NRRL B-50575 = type: cell-based, Serratia; conditions: for Antibiotic resistance of strain NRRL B-50575: disk method, L-agar, 25° C.; for resistance to antibiotics of NRRL B-50575 (in words): list of identifying characteristics
Protocol: (§1) Antibiotic Susceptibility: Two agar plates were streaked for growth with NRRL B-50575, and 8 paper discs, each soaked in a different antibiotic, were placed on the agar, with 4 discs on each plate. Disks containing the following antibiotics were used/obtained from Remel (Lenexa Kans.): ampicillin (10 μg), chloramphenicol (30 μg), erythromycin (30 μg), kanamycin (30 μg), neomycin (30 μg), tetracycline (30 μg), triple sulfa (300 μg) and vancomycin (30 μg). The plates were incubated for 24 hours at 25° C., and after this incubation period the zone of inhibition around each disc was measured.
(§2) The diffusible pink pigment (FIG. 4) produced by NRRL B-50575 (TP 07) was different from the red pigment of BF1 and ATCC 13880 (ATCC-SM), and the pigment was made at temperatures below 25° C. Antibiotic susceptibility was determined using the disk method per manufacturer's instructions on L-agar, incubated at 25° C. (Table 6). All of the pink bacterial strains had the similar antibiotic resistance. They differed in sensitivity to tetracycline, kanamycin, and chloramphenicol. They also differed from BF1 and ATCC 13880 in sensitivity to erythromycin.

TBSB-09 = type: cell-based; conditions: 25° C.
Protocol: as §1, §2

TBSB-08 = type: cell-based; conditions: 25° C.
Protocol: as §1, §2

Serratia marcesans BF1 = type: cell-based, Serratia marcescens; conditions: 25° C.
Protocol: as §1, §2

ATCC 13880 = type: cell-based, Serratia marcescens; conditions: 25° C.
Protocol: as §1, §2

| Molecule | Antibiotic resistance of strain NRRL B-50575 (NRRL B-50575) | resistance to antibiotics of NRRL B-50575 (in words) (NRRL B-50575) | Antibiotic resistance of strain TBSB-09 (TBSB-09) | Antibiotic resistance of strain TBSB-08 (TBSB-08) | Antibiotic resistance of strain BF1 (Serratia marcesans BF1) | Antibiotic resistance of strain ATCC 13880 (ATCC 13880) |
| --- | --- | --- | --- | --- | --- | --- |
| CC1(C)S[C@@H]2[C@H](NC(=O)[C@H](N)c3ccccc3)C(=O)N2[C@H]1C(=O)O [Ampicillin, ampicillin] | R | resistant | R | R | R | R |
| O=C(N[C@H](CO)[C@H](O)c1ccc([N+](=O)[O-])cc1)C(Cl)Cl [Chloramphenicol, chloramphenicol] | I | intermediate | S | I | S | I |
| CC[C@H]1OC(=O)[C@H](C)[C@@H](O[C@H]2C[C@@](C)(OC)[C@@H](O)[C@H](C)O2)[C@H](C)[C@@H](O[C@@H]2O[C@H](C)C[C@H](N(C)C)[C@H]2O)[C@](C)(O)C[C@@H](C)C(=O)[C@H](C)[C@@H](O)[C@]1(C)O [Erythromycin, erythromycin] | R | resistant | R | R | I | I |
| NC[C@H]1O[C@H](O[C@H]2[C@H](O)[C@@H](O[C@H]3O[C@H](CO)[C@@H](O)[C@H](N)[C@H]3O)[C@H](N)C[C@@H]2N)[C@H](O)[C@@H](O)[C@@H]1O [Kanamycin, kanamycin] | S | – | S | I | S | S |
| CN(C)[C@@H]1C(O)=C(C(N)=O)C(=O)[C@@]2(O)C(O)=C3C(=O)c4c(O)cccc4[C@@](C)(O)[C@H]3C[C@@H]12 [Tetracycline, tetracycline] | I | – | R | I | R | R |
| CN[C@H](CC(C)C)C(=O)N[C@H]1C(=O)N[C@@H](CC(N)=O)C(=O)N[C@H]2C(=O)N[C@H]3C(=O)N[C@H](C(=O)N[C@H](C(=O)O)c4cc(O)cc(O)c4-c4cc3ccc4O)[C@H](O)c3ccc(c(Cl)c3)Oc3cc2cc(c3O[C@@H]2O[C@H](CO)[C@@H](O)[C@H](O)[C@H]2O[C@H]2C[C@](C)(N)[C@H](O)[C@H](C)O2)Oc2ccc(cc2Cl)[C@H]1O [Vancomycin, vancomycin] | R | resistant | R | R | R | R |
| neomycin | S | susceptible | S | S | S | S |
